Measurements taken from US20180296630A1, “METHODS AND COMPOSITIONS FOR PREVENTING OR TREATING OPHTHALMIC CONDITIONS” (Stealth BioTherapeutics Corp, priority 2012, published 2018).

Columns and labels:
[1] = test system: human retinal epithelial cells (HREC); assay: Intracellular ROS in HRECs exposed to 30 mM glucose (dihydroethidium); format: cell-based; details: 100 nM, 24 h and 48 h
Procedure: FIGS. 2A-2F is a series of micrographs showing co-treatment with D-Arg-2′,6′-Dmt-Lys-Phe-NH2 (SS-31) reduced intracellular reactive oxygen species (ROS) in HRECs exposed to 30 mM glucose for 24 h and 48 h. Intracellular ROS was measured using dihydroethidium. 2A, 2D normal culture media; 2B, 2E 30 mM glucose; and 2C, 2F 30 mM glucose+D-Arg-2′,6′-Dmt-Lys-Phe-NH2 (SS-31) (100 nM) at 24 and 48 h, respectively.
The survival of HRECs in high glucose co-treated with D-Arg-2′,6′-Dmt-Lys-Phe-NH2 was tested at 24 h and 48 h.

[2] = test system: cytochrome c release in HRECs; assay: Cytochrome c release from mitochondria of HRECs (confocal microscopy, Western blot); format: cell-based, human; details: 30 mmol/L glucose; 24 h or 48 h
From the text: Glucose (30 mmol/L) induced cytochrome c release from the mitochondria of HRECs. Fixed HRECs were immunolabeled with a cytochrome c antibody and a mitochondrial specific protein antibody (HSP60).

[3] = test system: STZ and HFD/STZ diabetic rats; assay: Lens epithelium changes in diabetic SD rats; format: in vivo, Sprague-Dawley rat; details: STZ rat model and HFD/STZ rat model
Procedure: A rat model of diabetes was established by combination of 6-week HFD and low dose of STZ (30 mg/kg) injection or a single high dose of STZ (65 mg/kg) in SD rats. See generally, K. Srinivasan, B. Viswanad, Lydia Asrat, C. L. Kaul and P. Ramarao, Combination of high-fat diet-fed and low-dose streptozotocin-treated rat: A model for type 2 diabetes and pharmacological screening, Pharmacological Research, 52(4): 313-320, 2005. Rats of the same batch fed with normal chow (NRC) were used as a control.
The effect of the aromatic cationic peptides on lens epithelium in the SD rat model was investigated. Administration of D-Arg-2′,6′-Dmt-Lys-Phe-NH2 reduced epithelial cellular changes in both STZ rat model (FIG. 8) and HFD/STZ rat model (FIG. 9).

GTM3 cells = assay: ROS production, sustained oxidative injury by H2O2, GTM3 cells; format: cell-based, human; details: then 200 μM H2O2 24 h
Procedure: (§1) The effects of D-Arg-2′,6′-Dmt-Lys-Phe-NH2 on sustained oxidative injury of GTM and HTM cells was examined. Cells were pre-treated with 10^−6, 10^−7, 10^−8M of D-Arg-2′,6′-Dmt-Lys-Phe-NH2 for 1 h, and then incubated with 200 μM H2O2 for 24 h to investigate the protective effect of D-Arg-2′,6′-Dmt-Lys-Phe-NH2 in sustained oxidative stress.

iHTM cells = assay: ROS production, sustained oxidative injury by H2O2, iHTM cells; format: cell-based, human; details: then 200 μM H2O2 24 h
Procedure: as §1

[4] = test system: primary human retinal pigment epithelial (RPE) cells; assay: Viability of primary RPE cells incubated with peptide alone (MTT); format: cell-based; details: different concentrations of peptide alone; 24 h
Procedure: Primary retinal pigment epithelial (RPE) cells were cultured to test the effects of the aromatic-cationic peptides of the invention in preventing or reducing oxidative damage in these cells. Methods useful for the study of primary retinal pigment epithelial cells have been described. See, Dunn et al., ARPE-19, A Human Retinal Pigment Epithelial Cell Line with Differentiated Properties, Experimental Eye Research, 1996, 62(2): 155-170. […] Primary cultured human RPE cells were incubated with different concentrations of D-Arg-2′,6′-Dmt-Lys-Phe-NH2 alone for a period of 24 h, and cell viability was determined by a MTT assay (FIG. 22).

[5] = test system: streptozocin diabetic rats; assay: Quantitative MRI of the retina in diabetic rats; format: in vivo, SD rats
Procedure: 7, issue 1. Glycated hemoglobin and retinal thickness ex vivo (histology) will also be measured in control, diabetic groups and D-Arg-2′,6′-Dmt-Lys-Phe-NH2 treatment groups.
Diabetes is induced with intraperitoneal injection of streptozocin (60 mg/kg) within 5 minutes of its preparation in 0.01 M citrate buffer (pH 4.5) in male SD rats with body weights of approximately 200 g after overnight fast. Diabetes is verified 3 days later by the presence of plasma hyperglycemia (>300 mg/dl) and elevated urine volume (more than 60 ml/d) in nonfasted rats. Rat body weight and blood glucose levels are monitored weekly. Subtherapeutic levels of insulin (0-2 U neutral protamine Hagedorn insulin administered subcutaneously daily) is administered to maintain blood glucose levels between 450 and 550 mg/dl without urine ketones. Glycated hemoglobin is measured after 2 months of diabetes (Glyco-Tek affinity columns, kit 5351; Helena Laboratories, Beaumont, Tex.).
Nine month old diabetic rats are treated with D-Arg-2′,6′-Dmt-Lys-Phe-NH2 by injection, either intraperitoneal (IP) or subcutaneous (SC), with 1, 5, or 10 mg/kg D-Arg-2′,6′-Dmt-Lys-Phe-NH2. Injections are once/day. After 7 days of treatment, the retinas of the rats in the treatment and control groups are evaluated.
Male SD rats are examined by MRI by the methods of Berkowitz et al. Central retinal thickness at 2, 3, 4, 6, and 9 months after induction of diabetes is measured, and in age-matched non-diabetic controls. At day 7 after D-Arg-2′,6′-Dmt-Lys-Phe-NH2 treatment, rats are again evaluated via MRI according to the methods of Berkowitz et al.

D-Arg-2′,6′-Dmt-Lys-Phe-NH2
production of ROS [1]: reduced
translocation of cytochrome c between mitochondria and cytoplasm [2]: decrease
epithelial cellular changes of the lens epithelium [3]: reduced
ROS Production (GTM3 cells; 0.01 μM pre-treatment 1 h): 133.70 ± 3.24 %
ROS Production (GTM3 cells; 0.1 μM pre-treatment 1 h): 68.91 ± 8.62 %
ROS Production (GTM3 cells; 1 μM pre-treatment 1 h): 47.40 ± 1.81 %
ROS Production (iHTM cells; 0.01 μM pre-treatment 1 h): 114.30 ± 3.89 %
ROS Production (iHTM cells; 0.1 μM pre-treatment 1 h): 82.89 ± 3.70 %
ROS Production (iHTM cells; 1 μM pre-treatment 1 h): 36.91 ± 1.47 %
cell viability (MTT assay) [4]: did not adversely effect these cells
Apparent diffusion coefficient ([5]; 1 mg/kg IP or SC injection): N to N+
Intraretinal water content ([5]; 1 mg/kg IP or SC injection): N to N+
Retinal thickness ([5]; 1 mg/kg IP or SC injection): N to N+
Apparent diffusion coefficient ([5]; 5 mg/kg IP or SC injection): N to N+
Intraretinal water content ([5]; 5 mg/kg IP or SC injection): N to N+
Retinal thickness ([5]; 5 mg/kg IP or SC injection): N to N+
Apparent diffusion coefficient ([5]; 10 mg/kg IP or SC injection): N to N+
Intraretinal water content ([5]; 10 mg/kg IP or SC injection): N to N+
Retinal thickness ([5]; 10 mg/kg IP or SC injection): N to N+
